In PMC7926936, “YM155 Inhibits NleB and SseK Arginine Glycosyltransferase Activity” (Pathogens, 2021):

Experiments:
SseK1 = SseK1 (Salmonella enterica, UniProt A0A0H3NK84); assay: biochemical
NleB = NleB (Citrobacter rodentium, UniProt A0A482PDI9); assay: biochemical
Sequence of NleB (A0A482PDI9 whole entry, looked up): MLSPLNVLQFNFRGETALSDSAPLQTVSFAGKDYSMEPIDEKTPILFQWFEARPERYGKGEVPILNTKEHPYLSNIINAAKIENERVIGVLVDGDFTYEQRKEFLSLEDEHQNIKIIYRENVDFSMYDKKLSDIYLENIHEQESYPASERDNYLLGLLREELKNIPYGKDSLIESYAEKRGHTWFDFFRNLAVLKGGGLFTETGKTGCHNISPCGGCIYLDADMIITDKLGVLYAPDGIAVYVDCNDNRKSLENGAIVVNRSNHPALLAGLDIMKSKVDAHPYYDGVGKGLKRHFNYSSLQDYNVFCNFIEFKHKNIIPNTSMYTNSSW

Sequence of SseK1 (A0A0H3NK84 whole entry, looked up): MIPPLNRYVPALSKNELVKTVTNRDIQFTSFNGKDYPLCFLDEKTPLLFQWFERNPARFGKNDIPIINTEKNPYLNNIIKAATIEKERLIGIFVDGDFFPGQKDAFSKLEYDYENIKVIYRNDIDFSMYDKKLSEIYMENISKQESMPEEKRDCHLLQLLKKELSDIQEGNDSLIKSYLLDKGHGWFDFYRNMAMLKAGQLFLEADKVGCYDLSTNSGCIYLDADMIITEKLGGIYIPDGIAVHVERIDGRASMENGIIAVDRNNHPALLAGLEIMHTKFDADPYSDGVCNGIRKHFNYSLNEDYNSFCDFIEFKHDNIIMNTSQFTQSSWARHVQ

Structure (SMILES): COCCn1c2c([n+](Cc3cnccn3)c1C)C(=O)c1ccccc1C2=O [YM155]
- IC50 (SseK1): ~2 µM
- IC50 (NleB): ~2 µM
